Measured values reported in US12121505B2, “Fap-activated therapeutic agents, and uses related thereto” (BACH BIOSCIENCES, LLC, priority 2014, dated 2024).
Where two headings read alike, the source gives them in different places.

Tests used:
[1] = molecular target: T1, PREP (Homo sapiens, UniProt P48147); assay: Specificity of activation: 24 h digestion with PREP; assay type: biochemical; conditions: 100 μM prodrug, 37° C.
T1 sequence (P48147 1-710): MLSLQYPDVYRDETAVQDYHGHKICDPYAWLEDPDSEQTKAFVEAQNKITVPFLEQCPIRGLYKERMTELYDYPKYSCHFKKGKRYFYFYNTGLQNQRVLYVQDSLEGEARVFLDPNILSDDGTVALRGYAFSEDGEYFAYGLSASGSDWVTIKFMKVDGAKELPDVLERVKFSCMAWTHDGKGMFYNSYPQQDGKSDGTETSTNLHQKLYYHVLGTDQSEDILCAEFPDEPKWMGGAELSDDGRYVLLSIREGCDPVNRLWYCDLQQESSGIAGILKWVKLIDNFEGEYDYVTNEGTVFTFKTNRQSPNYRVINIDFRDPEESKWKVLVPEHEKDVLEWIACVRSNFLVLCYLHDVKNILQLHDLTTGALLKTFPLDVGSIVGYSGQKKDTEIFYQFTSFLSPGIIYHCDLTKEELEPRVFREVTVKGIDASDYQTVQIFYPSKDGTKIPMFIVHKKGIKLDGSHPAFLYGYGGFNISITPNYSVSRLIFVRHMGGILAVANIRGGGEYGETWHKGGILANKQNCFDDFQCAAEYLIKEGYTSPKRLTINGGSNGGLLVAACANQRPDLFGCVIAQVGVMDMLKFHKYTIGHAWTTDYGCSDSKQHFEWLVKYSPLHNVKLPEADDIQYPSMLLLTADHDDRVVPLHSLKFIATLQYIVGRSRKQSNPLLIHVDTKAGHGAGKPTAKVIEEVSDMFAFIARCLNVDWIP
Description: (§1) Total doxorubicin was measured for each assay.

[2] = molecular target: dipeptidyl peptidase IV (DPP IV) (Homo sapiens, UniProt P27487); assay: Specificity of activation: 24 h digestion with DPP IV; assay type: biochemical; conditions: 100 μM prodrug, 37° C.
dipeptidyl peptidase IV (DPP IV), sequence (P27487 whole entry, species assumed): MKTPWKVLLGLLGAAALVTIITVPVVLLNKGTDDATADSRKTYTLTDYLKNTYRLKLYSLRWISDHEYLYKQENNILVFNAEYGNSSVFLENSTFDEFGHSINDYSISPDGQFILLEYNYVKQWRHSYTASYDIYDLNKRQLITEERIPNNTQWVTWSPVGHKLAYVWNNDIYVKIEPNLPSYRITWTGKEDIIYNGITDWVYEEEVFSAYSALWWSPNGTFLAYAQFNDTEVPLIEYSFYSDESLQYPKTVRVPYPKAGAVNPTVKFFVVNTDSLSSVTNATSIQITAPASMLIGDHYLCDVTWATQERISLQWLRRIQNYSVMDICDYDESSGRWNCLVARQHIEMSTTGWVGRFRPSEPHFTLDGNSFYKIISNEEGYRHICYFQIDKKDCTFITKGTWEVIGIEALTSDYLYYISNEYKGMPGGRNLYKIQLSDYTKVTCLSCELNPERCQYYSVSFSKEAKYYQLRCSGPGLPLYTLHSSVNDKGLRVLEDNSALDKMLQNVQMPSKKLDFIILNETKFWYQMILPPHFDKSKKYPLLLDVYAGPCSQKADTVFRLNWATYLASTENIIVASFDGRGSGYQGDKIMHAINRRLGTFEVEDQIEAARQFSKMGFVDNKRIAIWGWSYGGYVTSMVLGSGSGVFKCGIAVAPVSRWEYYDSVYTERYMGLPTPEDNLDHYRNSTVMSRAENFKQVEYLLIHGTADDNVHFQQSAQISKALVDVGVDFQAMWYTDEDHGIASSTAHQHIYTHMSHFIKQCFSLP
Description: as §1

[3] = tested on: HEK-mFAP cells; assay: CellTiter-Blue cell viability assay with HEK-mFAP cells; assay type: cell-based, Human; conditions: for activation by FAP expressed by HEK-mFAP cells / effect of addition of the FAP inhibitor 5057 on activation: FIG. 15A, 15B
[4] = tested on: HEK-Mock cells; assay: CellTiter-Blue cell viability assay with HEK-Mock cells; assay type: cell-based; conditions: Homo sapiens
[5] = tested on: MCF-7; assay: CellTiter-Blue cell viability assay, MCF-7; assay type: cell-based; conditions: 5061DOX assay 2, MCF-7, 72 hour
[6] = tested on: OVCAR-3; assay: CellTiter-Blue cell viability assay, OVCAR-3; assay type: cell-based; conditions: 5061DOX assay 2, OVCAR-3, 72 hour
[7] = tested on: SK-OV-3; assay: CellTiter-Blue cell viability assay, SK-OV-3; assay type: cell-based; conditions: 5061DOX assay 2, SK-OV-3, 72 hour
[8] = Homo sapiens, 72 h, MK-2206 / Akt inhibitor prodrugs, HEK-mFAP cells, 72 hour incubation, read-out: EC50 (prodrug alone)
[9] = Homo sapiens, read-out: EC50 (prodrug + 100 uM 5057)
[10] = Homo sapiens, read-out: EC50 (prodrug alone)
[11] = read-out: EC50 (doxorubicin alone)

In the case of `COc1cccc2c1C(=O)c1c(O)c3c(c(O)c1C2=O)C[C@@](O)(C(=O)CO)C[C@@H]3OC1CC(NC(=O)[C@@H]2CCCN2C(=O)[C@@H](C)NC(=O)[C@H](CO)NC(=O)CCC(=O)O)C(O)C(C)O1` (stereo partly drawn) [Compound 3996DOX], the “doxorubicin released by PREP” value [1] is reported as “essentially none by PREP or DPP IV” and the “doxorubicin released by DPP IV” value [2] is reported as “essentially none by PREP or DPP IV”.
In the case of `O=C(NC1(c2ccc(-c3nc4ccn5c(=O)[nH]nc5c4cc3-c3ccccc3)cc2)CCC1)OCc1ccc(NC(=O)[C@@H]2CC(F)(F)CN2C(=O)CNC(=O)c2ccnc3ccccc23)cc1` [Compound 5173], the “activation by FAP expressed by HEK-mFAP cells” value [3] is reported as “appears to be activated by the FAP expressed by the HEK-mFAP cells”, the “effect of addition of the FAP inhibitor 5057 on activation” value [3] is reported as “blocks this activation” and the EC50 [3, 8] is reported as over 2.5 µM.
In the case of `NCC(=O)NNc1ccc(C(=O)NCC(=O)N2CC(F)(F)C[C@H]2C(=O)Nc2ccc(COC(=O)NC3(c4ccc(-c5nc6ccn7c(=O)[nH]nc7c6cc5-c5ccccc5)cc4)CCC3)cc2)cn1` [Compound 5193], the EC50 [3, 8] is reported as 2.6 µM.
With `O=C(NC1(C(=O)N[C@@H](CCO)c2ccc(Cl)cc2)CCN(c2ncnc3[nH]ccc23)CC1)OCc1ccc(NC(=O)[C@@H]2CC(F)(F)CN2C(=O)CNC(=O)c2ccnc3ccccc23)cc1` [Compound 5189] the EC50 ([3]; Homo sapiens, 72 h, Akt inhibitor prodrugs, HEK-mFAP cells, 72 hour, read-out: EC50 (prodrug + 100 uM 5057-2)) was 5.8 µM and the EC50 [3, 8] was 3 µM.
`CCn1c(-c2nonc2N)nc2c(C#CC(C)(C)O)ncc(OC[C@H]3CCCN(C(=O)[C@@H]4CC(F)(F)CN4C(=O)CNC(=O)c4ccnc5ccccc45)C3)c21` [Compound 5188] was tested, and the EC50 [3, 8] was over 25 µM.
For `CCn1c(-c2nonc2N)nc2c(C#CC(C)(C)O)ncc(OC[C@H]3CCCNC3)c21` [GSK690693, reference compound], the EC50 ([3]; Homo sapiens, 72 h, HEK-mFAP cells, 72 hour, read-out: EC50 (GSK690693)) was 15 µM.
Molecule `Cn1ncc(Cl)c1-c1cc(C(=O)N[C@H](CNC(=O)[C@@H]2CC(F)(F)CN2C(=O)CNC(=O)c2ccnc3ccccc23)Cc2cccc(F)c2)sc1Cl` [Compound 5184] has an EC50 ([3]; Homo sapiens, 72 h, Akt inhibitor prodrugs, HEK-mFAP cells, 72 hrs, read-out: EC50 (prodrug alone)) of 0.93 µM.
Work on `COc1cccc2c1C(=O)c1c(O)c3c(c(O)c1C2=O)C[C@@](O)(C(=O)CO)C[C@@H]3OC1CC(NC(=O)[C@@H]2CCCN2C(=O)[C@@H](C)NC(=O)c2ccnc3cccc(Br)c23)C(O)C(C)O1` (stereo partly drawn) [Compound 5061DOX] yielded an EC50 ([4]; 72 h, 5061DOX assay 1, HEK-Mock, 72 hour, read-out: EC50 (prodrug + 25 nM FAP)) of 0.28 µM, an EC50 ([4]; 72 h, 5061DOX assay 1, HEK-Mock, 72 hour, read-out: EC50 (prodrug + 50 nM PREP)) of over 100 µM and an EC50 ([4]; 72 h, 5061DOX assay 1, HEK-Mock, 72 hour, read-out: EC50 (prodrug + 100 uM 5057)) of over 100 µM. For the same molecule, the EC50 ([4]; 72 h, 5061DOX assay 1, HEK-Mock, 72 hour, read-out: EC50 (prodrug alone)) was over 100 µM, the EC50 ([4]; 72 h, 5061DOX assay 2, HEK-Mock, 72 hour, read-out: EC50 (prodrug + 25 nM FAP)) was 0.25 µM and the EC50 ([4]; 72 h, 5061DOX assay 2, HEK-Mock, 72 hour, read-out: EC50 (prodrug alone)) was over 100 µM. The EC50 ([3]; 5061DOX assay 1, HEK-mFAP, 72 hour, read-out: EC50 (prodrug alone)) was over 100 µM, the EC50 ([3]; 5061DOX assay 2, HEK-mFAP, 72 hour, read-out: EC50 (prodrug + 100 uM 5057)) was over 100 µM and the EC50 ([3]; Homo sapiens, 5061DOX assay 1, HEK-mFAP, 72 hour, read-out: EC50 (prodrug + 100 uM 5057)) was over 100 µM. It also gave an EC50 ([3]; Homo sapiens, 5061DOX assay 2, HEK-mFAP, 72 hour, read-out: EC50 (prodrug alone)) of over 100 µM, an EC50 ([5]; Homo sapiens, MCF7, read-out: EC50 (prodrug + 25 nM FAP)) of over 100 µM and an EC50 ([5]; Homo sapiens, MCF7, read-out: EC50 (prodrug + 100 uM 5057)) of over 100 µM. For the same molecule, the EC50 ([5]; Homo sapiens, MCF7, read-out: EC50 (prodrug alone)) was over 100 µM, the EC50 [6, 9] was over 100 µM and the EC50 ([6]; Homo sapiens, read-out: EC50 (prodrug = 25 nM FAP)) was 1.5 µM. The EC50 [6, 10] was over 100 µM, the EC50 ([7]; Homo sapiens, read-out: EC50 (prodrug + 25 nM FAP)) was 0.9 µM and the EC50 [7, 9] was over 100 µM. It also gave an EC50 [7, 10] of over 100 µM.
In the case of `C[C@@H](NC(=O)c1ccnc2ccccc12)C(=O)N1CC(F)(F)C[C@H]1C(=O)Nc1ccc(COC(=O)NC2(c3ccc(-c4nc5ccn6c(=O)[nH]nc6c5cc4-c4ccccc4)cc3)CCC2)cc1` [Compound 5174], the “activation by FAP expressed by HEK-mFAP cells” value [3] is reported as “appears to be activated by the FAP expressed by the HEK-mFAP cells”, the “effect of addition of the FAP inhibitor 5057 on activation” value [3] is reported as “blocks this activation” and the EC50 [3, 8] is reported as 4.6 µM.
Work on `NNc1ccc(C(=O)NCC(=O)N2CC(F)(F)C[C@H]2C(=O)Nc2ccc(COC(=O)NC3(c4ccc(-c5nc6ccn7c(=O)[nH]nc7c6cc5-c5ccccc5)cc4)CCC3)cc2)cn1` [Compound 5192] yielded an EC50 [3, 8] of over 3 µM.
For `NC1(c2ccc(-c3nc4ccn5c(=O)[nH]nc5c4cc3-c3ccccc3)cc2)CCC1` [MK-2206, reference compound], the EC50 ([4]; 5157 assay, HEK-Mock, read-out: EC50 (MK-2206 alone)) was 6.7 µM, the EC50 ([3]; Homo sapiens, 5157 assay, HEK-mFAP, read-out: EC50 (MK-2206 alone)) was 5.3 µM and the EC50 ([3]; Homo sapiens, 72 h, HEK-mFAP cells, 72 hrs, read-out: EC50 (MK-2206)) was 9.1 µM.
In the case of `Cn1ncc(Cl)c1-c1cc(C(=O)N[C@H](CN)Cc2cccc(F)c2)sc1Cl` [GSK2 110183, reference compound], the EC50 ([3]; HEK-mFAP cells, 72 hrs, read-out: EC50 (GSK2 110183)) is reported as 0.49 µM.
`C[C@@H](NC(=O)c1ccncc1)C(=O)N1CCC[C@H]1C(=O)Nc1ccc(COC(=O)NC2(c3ccc(-c4nc5ccn6c(=O)[nH]nc6c5cc4-c4ccccc4)cc3)CCC2)cc1` [Compound 5157] gave an EC50 ([4]; 5157 assay, HEK-Mock, read-out: EC50 (prodrug + 100 uM 3099-15)) of over 2.5 µM, an EC50 ([4]; 5157 assay, HEK-Mock, read-out: EC50 (prodrug alone)) of over 2.5 µM and an EC50 ([3]; Homo sapiens, 5157 assay, HEK-mFAP, read-out: EC50 (prodrug + 100 uM 3099-15)) of over 2.5 µM. The EC50 ([3]; Homo sapiens, 5157 assay, HEK-mFAP, read-out: EC50 (prodrug alone)) was 2.9 µM.
For `COc1cccc2c1C(=O)c1c(O)c3c(c(O)c1C2=O)C[C@@](O)(C(=O)CO)C[C@@H]3O[C@H]1C[C@H](N)[C@H](O)[C@H](C)O1` [doxorubicin, reference compound], the EC50 [5, 11] was 54 µM, the EC50 [6, 11] was 1.7 µM and the EC50 [7, 11] was 0.44 µM.
`COc1cccc2c1C(=O)c1c(O)c3c(c(O)c1C2=O)C[C@@](O)(C(=O)CO)C[C@@H]3OC1CC(NC(=O)[C@@H]2CC(F)(F)CN2C(=O)[C@@H](C)NC(=O)c2ccnc3ccccc23)C(O)C(C)O1` (stereo partly drawn) [Compound 5107DOX] gave an EC50 ([3]; Homo sapiens, 5107DOX assay, HEK-mFAP, 72 hour, read-out: EC50 (prodrug + 100 uM 5057-2)) of over 100 µM and an EC50 ([3]; Homo sapiens, 5107DOX assay, HEK-mFAP, 72 hour, read-out: EC50 (prodrug alone)) of 0.94 µM.
Molecule AZD5363 [reference compound] has an EC50 ([3]; HEK-mFAP cells, 72 hour, read-out: EC50 (AZD5363)) of 2.5 µM.
